Patent publication US11160808B2, “Compounds that enhance Atoh1 expression” (Massachusetts Eye & Ear Infirmary, priority 2008, dated 2021)

Assays:
[1] = tested on: Math1 enhancer and minimal promoter Luciferase reporter in HEK cells; assay: Math1 Luciferase reporter assay in HEK cells; type: cell-based, human; conditions: Homo sapiens, HEK293; for IC50: read-out: IC50; for maximal fold induction: read-out: Maximum (Fold DMSO)
Outline: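 HEK cells stably carrying luciferase under the Math1 enhancer and minimal promoter were treated with compounds for 48 hours at 37° C, then lysed for luminescence, normalized to DMSO. Hits were defined as a 2-fold increase, with 1 μM retinoic acid as positive control. Follow-up used 0.1, 1 and 5 μM for 48 hours in 10% FBS DMEM, read by luciferase and real-time PCR.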

[2] = LD50 (median lethal dose) determination; type: cell-based
Text: IC50 is a measure of the effectiveness of a compound in inhibiting biological or biochemical function. LD50 is the amount of a compound required to kill half the members of a tested population.

[3] = tested on: Math1 mRNA; assay: Math1 mRNA expression by RT-PCR in HEK cells; type: cell-based, human; conditions: among the four randomly selected compounds
Protocol: Ten compounds, randomly selected from the group of 110 compounds identified in Example 2, were further evaluated, as follows. HEK cells were plated on 96 well plates at a density of 100000 cells per well. One day after plating, 0.1, 1, and 5 μM of each positive compound was added per well in a 10% fetal bovine serum (FBS) DMEM solution. Cells were then lysed 48 hours after addition of the compound and Math1 expression was analyzed using a luciferase reporter assay, as described above, and real-time PCR.
RNA was also isolated and Math1 transcripts were amplified using high-throughput RT-PCR.

[4] = tested on: Inner ear stem cells; assay: Hair cell differentiation of inner ear stem cells (Math1-GFP and myosin 7a co-labeling); type: cell-based; conditions: cells co-labeled with Math1-GFP and myosin 7a; control 1.6%
Text: Inner ear stem cells were exposed to compound CP.-0000540, which was selected at random from the group of 110 positive compounds described in Example 2.
Hair cell differentiation was increased to 5.1% of total cells compared to 1.6% for control.

| SMILES | IC50 [1] [µM] | LD50 [2] [µM] | increase in Math1 mRNA expression (ranking in words) [3] | maximal fold induction [1] | Hair cell differentiation [4] |
| --- | --- | --- | --- | --- | --- |
| COc1ccc(-c2nc3ccccc3n2CCc2ccccc2)cc1 [CP-0193184, 2-(4-methoxyphenyl)-1-phenethyl-1H-benzo[d]imidazole] | > 10 | >30 | highest increase | – | – |
| Clc1ccc2nc(-c3ccccc3)n(OCc3ccccc3Cl)c2c1 [CP-0000540, 6-chloro-1-(2-chlorobenzyloxy)-2-phenyl-1H-benzo[d]imidazole] | 1.3 | >30 | highest increase | 2 | 5.1 % of total cells |
| Cn1cc(Cl)c(C(=O)NCC(=O)c2ccccc2)n1 [CP-0070886, 4-chloro-1-methyl-N-(2-oxo-2-phenylethyl)-1H-pyrazole-3-carboxamide] | 1 | >10 | – | 2.1 | – |
| Cc1cc(NC(=O)c2ccc3c(c2)OCO3)no1 [CP-0065665, N-(5-methylisoxazol-3-yl)benzo[d][1,3]dioxole-5-carboxamide] | 0.8 | >10 | – | 1.7 | – |
| Cc1ccc2nc(-c3cc4ccccc4oc3=N)[nH]c2c1 [CP-0091818, 3-(6-methyl-1H-benzo[d]imidazol-2-yl)-2H-chromen-2-imine] | 0.9 | >10 | – | 2.1 | – |
| Cn1nccc1C(=O)Nc1nc2ccccc2s1 [CP-0067233, N-(benzo[d]thiazol-2-yl)-1-methyl-1H-pyrazole-5-carboxamide] | 2 | >10 | – | 1.8 | – |
| COc1ccc(COn2c(-c3ccc(OC)cc3)nc3ccc(Cl)cc32)cc1 [CP-0000557, 6-chloro-1-(4-methoxybenzyloxy)-2-(4-methoxyphenyl)-1H-benzo[d]imidazole] | 0.02 | 30 | – | 2.6 | – |
| c1ccc(SCc2nc3ccccc3[nH]2)cc1 [CP-0080773, 2-(phenylthiomethyl)-1H-benzo[d]imidazole] | > 10 | >10 | – | 2.2 | – |
| c1ccc(CCn2nnc3ccccc32)cc1 [CP-0070871, 1-phenethyl-1H-benzo[d][1,2,3]triazole] | 3 | >10 | – | 2 | – |
| Cc1cccc(/C(N)=N/OC(=O)c2cccnc2)c1 [CP-0069934, (Z)-3-methyl-N′-(nicotinoyloxy) benzimidamide] | 2 | >10 | – | 1.7 | – |
| Cc1ccc(COn2c(-c3ccccc3)nc3ccc([N+](=O)[O-])cc32)cc1 [CP-0000571, 1-(4-methylbenzyloxy)-6-nitro-2-phenyl-1H-benzo[d]imidazole] | 0.3 | >30 | – | 2 | – |
| c1ccc(-c2cc3ccccc3[nH]2)nc1 [CP-0072096, 2-(pyridin-2-yl)-1H-indole] | 6 | >10 | – | 2.2 | – |
| CC(=O)c1sc(-c2ccc(C(C)(C)C)cc2)cc1N [CP-0008545, 1-(3-amino-5-(4-tert-butylphenyl)thiophen-2-yl)ethanone] | 0.4 | >10 | – | 2.5 | – |
